Results as given in patent publication US6737383B1, “Herbicidal oxadiazolidines” (priority 1999, dated 2004).

Experiments:
rice = assay: Test B flood test rice; type: in vivo, Oryza sativa
In short: (§1)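 Plants were grown to the 2-leaf stage before treatment with test chemical, then held in a greenhouse for twelve to sixteen days. Injury was visually rated against untreated controls on a 0–10 scale, where 0 is no effect and 10 is complete control.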

giant foxtail = assay: Test B pre/postemergence giant foxtail; type: in vivo, Setaria faberii
In short: (§2)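 Response is a visual 0-to-10 score relative to untreated plants, where 0 means no effect and 10 means complete control, taken twelve to sixteen days after application. Treatments went onto soil at planting and onto foliage of 1- to 4-leaf plants, using a surfactant-containing non-phytotoxic solvent.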

wheat = assay: Test B pre/postemergence wheat; type: in vivo, Triticum aestivum
In short: as §2

smallflower flatsedge = assay: Test B flood test smallflower flatsedge; type: in vivo, Cyperus difformis
In short: as §1

duck salad = assay: Test B flood test duck salad; type: in vivo, Heteranthera limosa
In short: as §1

crabgrass = assay: Test B pre/postemergence crabgrass; type: in vivo, Digitaria sanguinalis
In short: as §2

blackgrass = assay: Test B pre/postemergence blackgrass; type: in vivo, Alopecurus myosuroides
In short: as §2

purple nutsedge = assay: Test B pre/postemergence purple nutsedge; type: in vivo, Cyperus rotundus
In short: as §2

corn = assay: Test B pre/postemergence corn; type: in vivo, Zea mays
In short: as §2

bamyardgrass = assay: Test B flood test barnyardgrass; type: in vivo, Echinochloa crus-galli
In short: as §1

surinam grass = assay: Test B pre/postemergence surinam grass; type: in vivo, Brachiaria decumbens
In short: as §2

sugar beet = assay: Test B pre/postemergence sugar beet; type: in vivo, Beta vulgaris
In short: as §2

morningglory = assay: Test B pre/postemergence morningglory; type: in vivo, Ipomoea hederacea
In short: as §2

rape = assay: Test B pre/postemergence rape; type: in vivo, Brassica napus
In short: as §2

soybean = assay: Test B pre/postemergence soybean; type: in vivo, Glycine max
In short: as §2

velvetleaf = assay: Test B pre/postemergence velvetleaf; type: in vivo, Abutilon theophrasti
In short: as §2

cocklebur = assay: Test B pre/postemergence cocklebur; type: in vivo, Xanthium strumarium
In short: as §2

pigweed = assay: Test B pre/postemergence pigweed; type: in vivo, Amaranthus retroflexus
In short: as §2

wild oat = assay: Test B pre/postemergence wild oat; type: in vivo, Avena fatua
In short: as §2

[1] = Rate 62 g/ha, flood test species, Pre-emergence, visual evaluation after twelve to sixteen days
[2] = Rate 125 g/ha, under heading Pre-emergence, flood test species, visual evaluation after twelve to sixteen days
[3] = Rate 250 g/ha, Pre-emergence (flood test species), scale 0 to 10, 0 is no effect, 10 is complete control
[4] = Rate 500 g/ha, Pre-emergence section of Table B, 0 to 10 scale (0 no effect, 10 complete control)
[5] = Postemergence, Rate 125 g/ha, scale 0 to 10, 0 is no effect, 10 is complete control
[6] = Postemergence, Rate 500 g/ha, scale 0 to 10, 0 is no effect, 10 is complete control
[7] = Preemergence, Rate 62 g/ha, scale of 0 to 10 where 0 is no effect and 10 is complete control
[8] = Preemergence, Rate 125 g/ha, scale 0 to 10, 0 is no effect, 10 is complete control
[9] = Preemergence, Rate 500 g/ha, scale of 0 to 10 where 0 is no effect and 10 is complete control
[10] = Rate 62 g/ha, Postemergence, scale 0 to 10, 0 no effect, 10 complete control
[11] = Postemergence, Rate 250 g/ha, scale 0 to 10
[12] = Preemergence, Rate 250 g/ha, scale 0 to 10, 0 is no effect, 10 is complete control

C=C(Cn1c(=O)on(C(=O)N(c2ccccc2)C(C)C)c1=O)c1cccnc1 [Compound 498]
Plant response rating, Rice (0 to 10 scale, 0 is no effect, 10 is complete control) (rice; [1]): 0
Rice plant response rating (0 to 10 scale, 0 is no effect, 10 is complete control) (rice; [2]): 0
Rice plant response rating (rice; [3]): 0
Rice plant response rating (rice; [4]): 0
Giant foxtail plant response rating (giant foxtail; [5]): 2
Plant response rating, Giant foxtail (giant foxtail; [6]): 3
Plant response rating, Giant foxtail (giant foxtail; [7]): 0
Giant foxtail plant response rating (giant foxtail; [8]): 2
Giant foxtail plant response rating (giant foxtail; [9]): 8
Giant foxtail plant response rating (giant foxtail; [10]): 0
Wheat plant response rating (wheat; [5]): 0
Plant response rating, Wheat (wheat; [6]): 0
Plant response rating, Wheat (wheat; [7]): 0
Wheat plant response rating (wheat; [8]): 0
Wheat plant response rating (wheat; [9]): 0
Wheat plant response rating (wheat; [10]): 0
Plant response rating, S. Flatsedge (0 to 10 scale, 0 is no effect, 10 is complete control) (smallflower flatsedge; [1]): 0
S. Flatsedge plant response rating (0 to 10 scale, 0 is no effect, 10 is complete control) (smallflower flatsedge; [2]): 0
S. Flatsedge plant response rating (smallflower flatsedge; [3]): 0
S. Flatsedge plant response rating (smallflower flatsedge; [4]): 0
Plant response rating, Ducksalad (0 to 10 scale, 0 is no effect, 10 is complete control) (duck salad; [1]): 0
Ducksalad plant response rating (0 to 10 scale, 0 is no effect, 10 is complete control) (duck salad; [2]): 0
Ducksalad plant response rating (duck salad; [3]): 0
Ducksalad plant response rating (duck salad; [4]): 0
Crabgrass plant response rating (crabgrass; [11]): 0
Plant response rating, Crabgrass (crabgrass; [6]): 2
Plant response rating, Crabgrass (crabgrass; [7]): 0
Crabgrass plant response rating (crabgrass; [8]): 2
Crabgrass plant response rating (crabgrass; [9]): 5
Crabgrass plant response rating (crabgrass; [10]): 0
Blackgrass plant response rating (blackgrass; [5]): 0
Plant response rating, Blackgrass (blackgrass; [6]): 5
Plant response rating, Blackgrass (blackgrass; [7]): 0
Blackgrass plant response rating (blackgrass; [8]): 0
Blackgrass plant response rating (blackgrass; [12]): 0
Blackgrass plant response rating (blackgrass; [9]): 0
Blackgrass plant response rating (blackgrass; [10]): 0
Nutsedge plant response rating (purple nutsedge; [5]): 0
Plant response rating, Nutsedge (purple nutsedge; [6]): 0
Plant response rating, Nutsedge (purple nutsedge; [7]): 0
Nutsedge plant response rating (purple nutsedge; [8]): 0
Nutsedge plant response rating (purple nutsedge; [9]): 0
Nutsedge plant response rating (purple nutsedge; [10]): 0
Corn plant response rating (corn; [5]): 0
Corn plant response rating (corn; [11]): 0
Plant response rating, Corn (corn; [6]): 0
Plant response rating, Corn (corn; [7]): 0
Corn plant response rating (corn; [8]): 0
Corn plant response rating (corn; [9]): 0
Corn plant response rating (corn; [10]): 0
Plant response rating, Barnyardgrass (0 to 10 scale, 0 is no effect, 10 is complete control) (bamyardgrass; [1]): 0
Barnyardgrass plant response rating (0 to 10 scale, 0 is no effect, 10 is complete control) (bamyardgrass; [2]): 0
Barnyardgrass plant response rating (bamyardgrass; [3]): 0
Barnyardgrass plant response rating (bamyardgrass; [4]): 0
B. signalgrass plant response rating (surinam grass; [5]): 0
B. signalgrass plant response rating (surinam grass; Postemergence, Rate 250 g/ha, scale 0 to 10, 0 no effect, 10 complete control): 0
Plant response rating, B. signalgrass (surinam grass; [6]): 0
Plant response rating, B. signalgrass (surinam grass; [7]): 0
B. signalgrass plant response rating (surinam grass; [8]): 0
B. signalgrass plant response rating (surinam grass; [12]): 0
B. signalgrass plant response rating (surinam grass; Preemergence, Rate 500 g/ha, scale 0 to 10, 0 is no effect, 10 is complete control): 0
B. signalgrass plant response rating (surinam grass; [10]): 0
Sugarbeets plant response rating (sugar beet; [5]): 0
Plant response rating, Sugarbeets (sugar beet; [6]): 0
Plant response rating, Sugarbeets (sugar beet; [7]): 0
Sugarbeets plant response rating (sugar beet; [8]): 0
Sugarbeets plant response rating (sugar beet; [9]): 0
Sugarbeets plant response rating (sugar beet; [10]): 0
Morningglory plant response rating (morningglory; [5]): 3
Plant response rating, Morningglory (morningglory; [6]): 4
Plant response rating, Morningglory (morningglory; [7]): 0
Morningglory plant response rating (morningglory; [8]): 0
Morningglory plant response rating (morningglory; [9]): 0
Morningglory plant response rating (morningglory; [10]): 1
Rape plant response rating (rape; [5]): 0
Plant response rating, Rape (rape; [6]): 0
Plant response rating, Rape (rape; [7]): 0
Rape plant response rating (rape; [8]): 0
Rape plant response rating (rape; [9]): 0
Rape plant response rating (rape; [10]): 0
Soybean plant response rating (soybean; [5]): 1
Plant response rating, Soybean (soybean; [6]): 1
Plant response rating, Soybean (soybean; [7]): 0
Soybean plant response rating (soybean; [8]): 0
Soybean plant response rating (soybean; [9]): 0
Soybean plant response rating (soybean; [10]): 1
Velvetleaf plant response rating (velvetleaf; [5]): 0
Plant response rating, Velvetleaf (velvetleaf; [6]): 2
Plant response rating, Velvetleaf (velvetleaf; [7]): 0
Velvetleaf plant response rating (velvetleaf; [8]): 0
Velvetleaf plant response rating (velvetleaf; [9]): 0
Velvetleaf plant response rating (velvetleaf; [10]): 0
Cocklebur plant response rating (cocklebur; [5]): 0
Cocklebur plant response rating (cocklebur; [11]): 0
Plant response rating, Cocklebur (cocklebur; [6]): 0
Plant response rating, Cocklebur (cocklebur; [7]): 0
Cocklebur plant response rating (cocklebur; [8]): 0
Cocklebur plant response rating (cocklebur; [12]): 0
Cocklebur plant response rating (cocklebur; [9]): 0
Cocklebur plant response rating (cocklebur; [10]): 0
Redroot pigweed plant response rating (pigweed; [5]): 0
Plant response rating, Redroot pigweed (pigweed; [6]): 0
Plant response rating, Redroot pigweed (pigweed; [7]): 0
Redroot pigweed plant response rating (pigweed; [8]): 0
Redroot pigweed plant response rating (pigweed; [9]): 0
Redroot pigweed plant response rating (pigweed; [10]): 0
Wild oats plant response rating (wild oat; [5]): 0
Plant response rating, Wild oats (wild oat; [6]): 0
Plant response rating, Wild oats (wild oat; [7]): 0
Wild oats plant response rating (wild oat; [8]): 0
Wild oats plant response rating (wild oat; [9]): 0
Wild oats plant response rating (wild oat; [10]): 0
